Values joined by “and” are separate entries in the source; they are usually repeats but may differ in a detail not shown here. Equal entries are not always repeated. Where two headings read alike, the source gives them in different places.
Assays:
[1] = system: PolyA HIV RNA in the supernatant; test: Supernatant viral RNA (polyadenylated HIV RNA, RT-ddPCR) at day 6 after T cell activation; format: cell-based; conditions: for Viral RNA in supernatant (PolyA HIV RNA), median relative to activated DMSO: day 6 after anti-CD3/CD28 activation, Figure 5; for Polyadenylated HIV RNA in supernatant (Fig 5) / Polyadenylated HIV RNA in supernatant (Fig 5, Fig S6B): day 6; for Polyadenylated HIV RNA in supernatant (Fig 5, Fig S6B): study participant 150b
Method: PBMCs were cultured in the presence of individual drugs in DMSO or DMSO alone as control, activated (anti-CD3/CD28), and assessed for levels of PolyA HIV RNA in the supernatant at day 6.
Each drug was tested in PBMCs from 6 ART-suppressed study participants (except for triptolide, n = 5). PBMCs were aliquoted into wells at 6 × 10^6 cells/well. After activation, the cells were cultured with antiretrovirals in the presence of individual drugs in DMSO or DMSO alone as control. All conditions were tested in the presence of CD3/28 T cell–activating beads, except for the unactivated DMSO condition. After 6 days, RNA was extracted from the culture supernatant. Polyadenylated HIV RNA in the supernatant was quantified by RT-ddPCR, expressed as copies/mL, and then normalized to the levels of the activated DMSO (% of activated DMSO). Medians and IQR are presented, as well as the individual values per study participant in different colors. Comparisons were performed using Wilcoxon’s signed-rank test.
(§1) For quantification of cell-associated HIV transcripts, PBMCs were harvested either after 24 hours or after 6 days. The cell viabilities were measured by trypan blue staining; then the cells were pelleted by centrifuging at 300g for 6 minutes and stored at –80°C. For quantification of virion-associated HIV RNA, cell culture supernatant was collected from 6 × 10^6 PBMCs that were treated and activated for 6 days as described above. Residual cells and cellular debris were subsequently removed from the supernatant by differential centrifugation (300g for 6 minutes, then 20,000g for 10 minutes), and the supernatant was stored at –80°C.
Total cellular DNA and RNA were extracted in parallel using Trireagent (Molecular Research Center) according to the manufacturer’s instructions, except for study participants 2147 and 2461 (Figure 4), for whom DNA and RNA were extracted using the QIAGEN AllPrep DNA/RNA/miRNA Universal Kit with on-column DNase I treatment of the RNA and the manufacturer’s modification to enhance recovery of short transcripts. RNA and DNA concentrations were measured using UV spectrophotometry (NanoDrop One, Thermo Fisher Scientific). Total initiated HIV (TAR) transcripts were quantified by a 3-step polyadenylation RT-ddPCR as described previously ([8], [84]). HIV 5′ elongated (LLTR), midtranscribed (Pol), completed (PolyA), and multiply spliced (TatRev) transcripts were quantified by a 2-step RT-ddPCR as previously described ([8]). The levels of each HIV transcript were normalized to 1 μg of total cellular RNA and expressed as a percentage of the (activated) DMSO control. To quantify virion-associated RNA in supernatant, RNA was extracted from 400 μL supernatant using Trireagent-LS (Molecular Research Center) according to the manufacturer’s instructions. Levels of U3-polyadenylated HIV RNA were measured in the supernatant by RT-ddPCR, normalized to copies/mL, and expressed as a percentage of the activated DMSO. For measuring the HIV infection frequency at day 6, the HIV DNA U3-U5 LTR region was quantified by using ddPCR as described previously ([8]). HIV DNA copies were normalized to cell numbers according to the mass of DNA input per well (calculated from the DNA concentration and input volume) ([85]).

PBMCs = format: cell-based, human; conditions: 6 days after αCD3/28 activation, each row one participant
Method: Next, we evaluated the ability of the candidate LPAs to sustain the inhibitory effects during a prolonged ex vivo culture. To this end, PBMCs were cultured in the presence of individual drugs in DMSO or in DMSO alone as control, activated (anti-CD3/CD28), and harvested after 6 days. […] However, we decided to test the drug on day 6 because extra cells were available from some study participants.
as §1
A) After six days, the viability was measured by trypan blue staining and then normalized to the levels of the activated DMSO (% of activated DMSO). Bars indicate medians and different colors indicate individual study participants. B-F) Each drug was tested in PBMCs from at least six ART-suppressed study participants (except for KRIBB11, n=5) and the PBMCs were aliquoted into wells at 6x10^6 cells/well. After activation, the cells were cultured with antiretrovirals in the presence of individual drugs in DMSO or DMSO alone as control. After six days, total RNA was extracted and the progression through different stages of HIV transcription was (1 picture or pasted object on this page, not shown here)

[2] = system: HIV transcripts (PolyA, TatRev); test: Dose-response curves of LPAs: polyadenylated and multiply spliced HIV transcripts 24 hours after activation; format: cell-based; conditions: for IC50: 24 h, PBMCs from 1 participant per drug; for MS Tat-Rev (dose-response) / PolyA (dose-response): 24 hours, 1 participant per drug
Method: The IC50 was determined based on the reduction in completed (PolyA) as well as multiply spliced (TatRev) HIV transcripts relative to activated DMSO (Table 1).
Figure 2 Dose-response curves of LPAs. Dose-response curves for each drug were generated in PBMCs from 1 ART-suppressed study participant per drug. PBMCs were aliquoted into wells at 6 × 10^6 cells/well, activated, and cultured with antiretrovirals in the presence of DMSO alone (no drug) or varying concentrations of individual drugs in DMSO. After 24 hours, the levels of polyadenylated and multiply spliced HIV transcripts were quantified by RT-ddPCR, normalized to 1 μg of total cellular RNA, and expressed as a percentage of the activated DMSO control (% of activated DMSO).

[3] = Human immunodeficiency virus 1, PBMC, reduction in PolyA HIV transcripts relative to activated DMSO, read-out: Completed (PolyA) IC50
[4] = Human immunodeficiency virus 1, PBMC, reduction in TatRev HIV transcripts relative to activated DMSO, read-out: Multiply spliced (TatRev) IC50

Compound | Viral RNA in supernatant (PolyA HIV RNA), median relative to activated DMSO [1] [%] | Polyadenylated HIV RNA in supernatant (Fig 5) ([1]; study participant 150a) | Polyadenylated HIV RNA in supernatant (Fig 5) ([1]; study participant 156) | Polyadenylated HIV RNA in supernatant (Fig 5) ([1]; study participant 163) | Polyadenylated HIV RNA in supernatant (Fig 5) ([1]; study participant 2027) | Polyadenylated HIV RNA in supernatant (Fig 5) ([1]; study participant 2147b) | Polyadenylated HIV RNA in supernatant (Fig 5) ([1]; study participant 2161) | Polyadenylated HIV RNA in supernatant (Fig 5) ([1]; study participant 2747) | Polyadenylated HIV RNA in supernatant (Fig 5) ([1]; study participant 2750) | IC50 [2, 3] [nM] | IC50 [2, 4] [nM] | MS Tat-Rev (dose-response) ([2]; dose 1 nM) | PolyA (dose-response) ([2]; dose 1 nM) | Polyadenylated HIV RNA in supernatant (Fig 5, Fig S6B) [1] | Polyadenylated HIV RNA in supernatant (Fig 5) ([1]; study participant 2256) | further results
CC(=O)N[C@@H]1CCC[C@H](C(=O)Nc2cc(-c3cnn4c3CC(C)(C)C4)c(Cl)cn2)C1 [AZD4573] | 1.9 | 27.84 % of activated DMSO | 3.19 % of activated DMSO | 90.51 % of activated DMSO | 0 % of activated DMSO | 0.7 % of activated DMSO | 0 % of activated DMSO | 17.73 % of activated DMSO | 0 % of activated DMSO | 0.28 | 0.23 | 18.92 % of activated DMSO | 20.96 % of activated DMSO |  |  | Cell viability (DMSO αCD3/28 = 100) (PBMCs; 8nM): 123.6 and 120.68 and 105.88 and 140.1 and 117.5 and 116.7 and 104.1; MS Tat-Rev (dose-response) ([2]; dose 8 nM): 1.11 % of activated DMSO; PolyA (dose-response) ([2]; dose 8 nM): 5.23 % of activated DMSO; MS Tat-Rev (dose-response) ([2]; dose 20 nM): 0.18 % of activated DMSO; PolyA (dose-response) ([2]; dose 20 nM): 4.94 % of activated DMSO
O=c1c(O)c(-c2ccc(O)c(O)c2)oc2cc(O)cc(O)c12 [quercetin] |  |  |  | 85.4 % of activated DMSO | 20.42 % of activated DMSO | 8.6 % of activated DMSO | 4.65 % of activated DMSO | 9.09 % of activated DMSO |  | 1410 | 1130 |  |  | 315.15 % of activated DMSO | 134.41 % of activated DMSO | Cell viability (DMSO αCD3/28 = 100) (PBMCs; 5μM): 74.1 and 98.05 and 112.6 and 106 and 105.8; MS Tat-Rev (dose-response) ([2]; dose 5 µM): 15.52 % of activated DMSO; PolyA (dose-response) ([2]; dose 5 µM): 17.57 % of activated DMSO; MS Tat-Rev (dose-response) ([2]; dose 10 µM): 14.99 % of activated DMSO; PolyA (dose-response) ([2]; dose 10 µM): 19.46 % of activated DMSO
CC(C)[C@]12O[C@H]1[C@@H]1O[C@]13[C@]1(O[C@H]1C[C@H]1C4=C(CC[C@@]13C)C(=O)OC4)[C@@H]2O [triptolide] | 0.0 |  |  |  |  | 0 % of activated DMSO |  |  | 0 % of activated DMSO |  |  |  |  | 0 % of activated DMSO | 2.15 % of activated DMSO | Polyadenylated HIV RNA in supernatant (Fig 5) ([1]; study participant 5557): 0 % of activated DMSO; Cell viability (DMSO αCD3/28 = 100) (PBMCs; 25-50nM): 81.87 and 92.51 and 90.83 and 106.88 and 80.32 and 104.1
pladienolide B | 3.8 | 17.33 % of activated DMSO | 7.61 % of activated DMSO | 15.15 % of activated DMSO | 63.66 % of activated DMSO | 0 % of activated DMSO | 0 % of activated DMSO | 0 % of activated DMSO | 0 % of activated DMSO |  |  | 17.07 % of activated DMSO | 43.55 % of activated DMSO |  |  | Cell viability (DMSO αCD3/28 = 100) (PBMCs; 10nM): 115.2 and 113.39 and 90.65 and 128.6 and 121.6 and 94.2 and 112.8; MS Tat-Rev (dose-response) ([2]; dose 0.1 nM): 34.26 % of activated DMSO; PolyA (dose-response) ([2]; dose 0.1 nM): 47.95 % of activated DMSO; MS Tat-Rev (dose-response) ([2]; dose 10 nM): 0.76 % of activated DMSO; PolyA (dose-response) ([2]; dose 10 nM): 4 % of activated DMSO; IC50 ([2]; reduction in PolyA HIV transcripts relative to activated DMSO, read-out: Completed (PolyA) IC50): 0.18 nM; IC50 ([2]; reduction in TatRev HIV transcripts relative to activated DMSO, read-out: Multiply spliced (TatRev) IC50): 0.06 nM
